Measured values from publication PMC6752817, “Identification and characterization of a novel heparan sulfate-binding domain in Activin A longest variants and implications for function” (PLoS ONE, 2019).
Entries after “also recorded” stand apart in the source; their conditions may differ.

Tests used:
[1] = Solid-phase binding of biotinylated peptides (NA-HRP tetramers) to HS-coated plates; conditions: for Binding to substrate-bound HS: HS-coated 96-well plates, peptide tetramers with NA-HRP, PBST with 1% BSA, 2 hr, room temperature, OPD read at 450 nm; for Binding to HS in presence of heparin competitor: HS-coated plates, pre-incubation of peptide with excess soluble heparin
Experimental: Fig 6 Peptides corresponding to the novel HBD bind HS with high affinity. 96-well plates were coated with HS and incubated with tetrameric peptide complexes (HBC) for 2 hrs. Plates were washed, and bound peptides were assessed by addition of OPD substrate. A and B, schematic diagram depict the amino acid sequences of Act A- X2^13-37 and Act A- X3^259-272 peptides and their location within the full-length proteins, respectively. C, solid phase binding assays of Act A peptides to HS. […] Inset, double reciprocal plot that yields a Kd of 4 nM (n = 3) for Act A- X2^13-37.
Peptides encompassing the heparin binding domains, contained the putative Cardin-Weintraub (CW) motif and a minimum of 2 flanking amino acids on the N- and C- terminal sides of the domain. Three Glycine residues were added to the N-terminus of each peptide to provide a flexible linker between an N-terminal biotin tag and the peptide itself (See Table 6). Peptides were purified by reverse phase HPLC and peptide mass was confirmed by MALDI-TOF mass spectrometry. All peptides were synthesized and purified by Peptide 2 (Chantilly, VA). Where indicated, biotinylated peptides were oligomerized into tetramers by incubation with NAHRP (each avidin molecule binding 4 biotins ([57]) as described.
Nunc MaxiSorp flat bottom 96 well plates were coated with HS in 50 mM carbonate buffer (pH 9.4) overnight at 4°C as described. All binding assays were carried out in 1 x PBS, 0.1% tween 20 (PBST) containing 1% bovine serum albumin. Plates were incubated with peptides for a minimum of 2 hr at room temperature with gentle shaking. At the termination of the assay, the plates were washed 3 times with PBST and a final rinse with PBS. Plates were developed by addition of HRP substrate O-phenylenediamine dihydrochloride (OPD) in Citrate-Phosphate buffer (25 mM citric acid, 50 mM sodium phosphate, pH 5) and read at 450 nm in a Bio-Tek Synergy HT plate reader.

[2] = tested on: U937 cell surface; experiment: Peptide binding to intact U937 cells, FACS; assay type: cell-based, human; conditions: formalin-fixed U937 cells; for Binding to U937 cell surface: biotinylated peptide complexed with NA-488, 2 hr on ice, FACS (FL1); for Binding to U937 cell surface in presence of heparin competitor: peptide complexed with NA-488, excess soluble heparin, FACS
Experimental: Fig 7 HBD peptides bind to the cell surface with avidity. A, U937 cells were incubated with peptide complexes consisting of biotinylated peptides pre-incubated with NA-488. Following incubation, the cells were washed, and bound peptide was assessed by FACS analysis. […] In contrast, Act A-X3^259-272 peptide fails to bind. Binding specificity was verified using a previously characterized peptide encompassing the high affinity HBD from BMP4. B, representative FACS plots show binding of Act A- X2^13-37 in the absence (blue line) or presence (red line) of heparin competitor. C, representative FACS plots showing binding of Act A- X2^13-37 (blue line), lack of binding by Act A-X3^259-272 (red line) and background signal generated by U937 cells alone (green line). Statistical Analysis (Student’s t test): NA488 vs ActA X2^13-37, NA488 vs BMP4: ****: P< = 0.0001, **: P< = 0.01.
U937 cells were washed with PBS and fixed with 2% buffered formalin for 20 min on ice. The cells were washed with PBS and blocked by incubation in PBS, 1% BSA for 20 min on ice. Approximately […] cells (100 μl) were incubated with peptide tetramers consisting of biotinylated peptide complexed with NA-488. Following incubation for 2 hr on ice, the cells were washed and analyzed on a BD Accuri Flow Cytometer (FL1 channel), located in the Flow Cytometry Core Laboratory at CHOP.

[3] = rat, in vivo, iv; cited from earlier work
Text: As pointed out above, past and recent studies on Act A biology and function have made use of the X3 variant or the mature protein but to our knowledge, the X1 or X2 variants have not been tested. For example, Harrington et al. used recombinant Act A mature protein to clarify the structural basis by which Fs inhibits Act A signaling. […] Wang et al. carried out a detailed analysis of mechanisms involved in initiation of Act A biological activity, using the X3 ...

[4] = tested on: Act A X1 and X2 variant transcripts in U937 cells; experiment: Induction of Act A variant transcripts in U937 cells, PCR; assay type: cell-based, human
Experimental: (§1) Total RNA was isolated using TRIzol Reagent (Thermo-Fisher) following the manufacturers protocol. Five μg of glycogen (Thermo-Fisher AM9510) was added to the aqueous phase prior to the addition of isopropanol to facilitate RNA precipitation. For some experiments, RNA quantification was determined using a Nanodrop spectrophotometer. cDNA was prepared from 2 μg of purified RNA, using oligo dT as primer, supplied with the Verso cDNA synthesis kit (Thermo-Fisher # AB1453A) or SuperScript IV Reverse Transcriptase (Thermo-Fisher #18090010) following the manufactures protocol. All PCR reactions were performed using Act A specific primers and GoTaq Green Master Mix (Promega) following the manufacturers protocols. PCR reactions were optimized by gradient PCR, using an Applied Biosystems Veriti Thermal Cycler. PCR products were size fractionated on 1% agarose gels, the bands were isolated, DNA was extracted from gel slices using Micro Bio-Spin columns (Bio Rad# 7326204) and sequenced. All DNA sequencing was performed by the NAPCore Facility at CHOP.
(§2) U937 (human pro-monocytic) and THP-1 (human monocytic) cell lines were grown in RPMI containing 10% fetal bovine serum in a humidified atmosphere of 5% CO2. Cells were treated with PMA (100 ng/ml; 160 nM) for 4 hr (23) or GM-CSF (1 ng/ml) for 8 hr in RPMI containing 1% fetal bovine serum.

[5] = tested on: Act A X1 and X2 variant transcripts in THP1 cells; experiment: Induction of Act A variant transcripts in THP1 cells, PCR; assay type: cell-based, human; conditions: GM-CSF 1 ng/ml for 8 hr
Experimental: as §1, §2

[6] = tested on: Act A expression in purified human monocytes; conditions: ref [41]; cited from earlier work
Experimental: It should be noted that the above transcript/protein predictions of variants are based on computational genomic analyses that were conducted initially by the MGC team using ESTs to explore the transcriptome and then subsequently confirmed by whole genome sequencing and bioinformatics. Much of the past and recent extensive literature on Act A has utilized recombinant forms of the X3 variant, but currently there is little information about the expression and structural characteristics of the X1 and X2 variants. Thus, we first asked whether these variants are expressed by myel ...

[7] = tested on: TIEG expression in THP1 cells; experiment: TIEG (KLF10) mRNA induction in THP1 cells, qPCR; assay type: cell-based, human; conditions: 2 hr, rhAct A or conditioned medium of AD293 cells transfected with X2 or X3 constructs
Text: Fig 4 Expression and secretion of Act A variants. Expression constructs for full length X1, X2 and X3 variants were cloned into pcDNA 3.1 and transfected into AD293 and COS1 cells. A, diagram of Act A expression cassette with His tag on the 3’ end. […] Untransfected cells are shown in lane 2. […] D, immunoblots of conditioned medium samples separated under reducing conditions and probed with anti-His tag antibody. […] The band was undetectable in conditioned medium from cells transfected with the X1 vector (lanes 1, 4 and 9) or un-transfected cells (lanes 7 and 8). Lanes 4–6 are a longer exposure of lanes 1–3. E, THP1 cells were incubated for 2 hrs with conditioned media from AD293 cells that were untransfected (U) or transfected with X2 or X3 constructs. The cells were processed for q-PCR analysis of TIEG expression, an early response gene induced by Act A and TGF-β. […]
To assess biological activity of the expressed Act A variants, THP1 cells were incubated with 3 ml of conditioned medium obtained from cells transfected with each Act A variant for 2 hr, in the absence or presences of an ActA neutralizing antibody (BioLegend # 94746) the cells were pelleted and total RNA was isolated using TRIzol Reagent as described above. Induction of Kruppel-like factor 10 (KLF10, TIEG; accession NM_005655) mRNA, an early response gene induced by Act A and TGF-β was assessed by qPCR.

[8] = tested on: mutant ALK2; conditions: ref [52]; cited from earlier work
Text: In the musculoskeletal research field, interest in Act A biology has been re-invigorated by recent evidence of its pathogenic roles in the pediatric congenital disorder Fibrodysplasia Ossificans Progressiva (FOP). FOP is characterized by episodic formation of extraskeletal cartilage and bone tissue–a process collectively termed heterotopic ossification (HO)—at multiple sites, eventually involving much of the body. HO is preceded by local inflammation and over time, the accumulated ectopic tissue causes multiple health problems and impediments—including skeletal deformities, chron ...

[9] = PMA 100 ng/ml (160 nM) for 4 hr, semi-quantitative PCR

[B]-GGGLKRRRKKKTPKKKIKKSTHTKKPAR [X2^13-37, biotinylated synthetic peptide encompassing the novel HBD, identical in X1 and X2]
Binding to substrate-bound HS [1]: interacted with HS with high affinity | Binding to substrate-bound HS ([1]; listed as Act A- X2^13-37): binds HS with high affinity | Binding to HS in presence of heparin competitor [1]: binding was blocked by pre-incubation of the peptide with excess heparin | Binding to HS in presence of heparin competitor ([1]; listed as Act A- X2^13-37): its binding is blocked by addition of soluble heparin | Binding to U937 cell surface [2]: readily and efficiently interacted with the cell surface | Binding to U937 cell surface ([2]; listed as Act A- X2^13-37): readily binds to the cell surface | Binding to U937 cell surface in presence of heparin competitor [2]: binding was blocked by pre-treatment with heparin | Binding to U937 cell surface in presence of heparin competitor ([2]; listed as Act A- X2^13-37): its interaction is blocked by soluble heparin competitor

mature protein: mature Act A protein (cited studies)
Circulating half-life (t1/2 fast) [3]: 5.5 min

CCCCCCCCCCCCCC(=O)O[C@@H]1[C@@H](C)[C@@]2(O)[C@@H](C=C(CO)C[C@]3(O)C(=O)C(C)=C[C@@H]23)[C@@H]2C(C)(C)[C@]12OC(C)=O [PMA, Phorbol 12-myristate 13-acetate, reference compound]
Expression of Act A X1 variant transcript in U937 cells [4, 9]: undetectable | Expression of Act A X2 variant transcript in U937 cells [4, 9]: stimulated expression of transcripts encoding the X2 variant in U937 cells; also recorded: induced expression of Act A-X2

granulocyte macrophage-colony stimulating factor [GM-CSF]
Expression of Act A X1 variant transcript in U937 cells ([4]; GM-CSF 1 ng/ml for 8 hr, PCR): only stimulated expression of the X1 variant in U937 cells; also recorded: induced expression of both Act A-X2 and -X1 | Expression of Act A X2 variant transcript in U937 cells ([4]; GM-CSF 1 ng/ml for 8 hr, PCR): upregulated the X2 variant in both cell lines; also recorded: induced expression of both Act A-X2 and -X1 | Expression of Act A X2 variant transcript in THP1 cells [5]: upregulated the X2 variant in both cell lines; also recorded: induced expression of Act A-X2 | Induction of Act A expression in purified human monocytes [6]: induces strong expression of Act A in purified human monocytes

[B]-GGGGKKKKKEEEGEGKKK [X3^259-272]
Binding to substrate-bound HS [1]: failed to interact with HS at any concentration tested; also recorded: failed to interact with substrate-bound HS | Binding to substrate-bound HS ([1]; listed as Act A-X3^259-272): displays minimal binding | Binding to U937 cell surface [2]: failed to interact with the cells; also recorded: failed to interact with substrate-bound HS or the cell surface | Binding to U937 cell surface ([2]; listed as Act A-X3^259-272): fails to bind

B1: rhAct A: commercially available recombinant human Act A (protein, UniProt P08476 311-426, looked up)
Inhibin beta A chain: GLECDGKVNICCKKQFFVSFKDIGWNDWIIAPSGYHANYCEGECPSHIAGTSGSSLSFHSTVINHYRMRGHSPFANLKSCCVPTKLRPMSMLYYDDGQNIIKKDIQNMIVEECGCS
modifications: Inhibin beta A chain
Induction of TIEG expression (words) [7]: TIEG was rapidly upregulated | Induction of TIEG expression (words) ([7]; listed as rhActA): up-regulated

B2: activin A (protein, UniProt P08476 311-426, looked up)
Inhibin beta A chain: GLECDGKVNICCKKQFFVSFKDIGWNDWIIAPSGYHANYCEGECPSHIAGTSGSSLSFHSTVINHYRMRGHSPFANLKSCCVPTKLRPMSMLYYDDGQNIIKKDIQNMIVEECGCS
modifications: Inhibin beta A chain
pSMAD1/5/8 signaling through mutant ALK2 [8]: elicits pSMAD1/5/8 signaling
